Measurements as given in US6342508B1, “N-hydroxy-2-(Alkyl,Aryl or Heteroaryl sulfanyl, sulfinyl or sulfonyl) 3-substituted alkyl, aryl or heteroarylamides as matrix metalloproteinase inhibitors” (American Cyanamid Company, priority 1997, dated 2002).
Like-named read-outs stand apart in the source and are kept apart here.

Key:
TACE = target: T1, TACE (Homo sapiens, UniProt P78536); assay: Procedure for Measuring TACE Inhibition (fluorescent peptidyl substrate); type: biochemical
T1 construct: purchased Immunex
T1 sequence (P78536 215-824): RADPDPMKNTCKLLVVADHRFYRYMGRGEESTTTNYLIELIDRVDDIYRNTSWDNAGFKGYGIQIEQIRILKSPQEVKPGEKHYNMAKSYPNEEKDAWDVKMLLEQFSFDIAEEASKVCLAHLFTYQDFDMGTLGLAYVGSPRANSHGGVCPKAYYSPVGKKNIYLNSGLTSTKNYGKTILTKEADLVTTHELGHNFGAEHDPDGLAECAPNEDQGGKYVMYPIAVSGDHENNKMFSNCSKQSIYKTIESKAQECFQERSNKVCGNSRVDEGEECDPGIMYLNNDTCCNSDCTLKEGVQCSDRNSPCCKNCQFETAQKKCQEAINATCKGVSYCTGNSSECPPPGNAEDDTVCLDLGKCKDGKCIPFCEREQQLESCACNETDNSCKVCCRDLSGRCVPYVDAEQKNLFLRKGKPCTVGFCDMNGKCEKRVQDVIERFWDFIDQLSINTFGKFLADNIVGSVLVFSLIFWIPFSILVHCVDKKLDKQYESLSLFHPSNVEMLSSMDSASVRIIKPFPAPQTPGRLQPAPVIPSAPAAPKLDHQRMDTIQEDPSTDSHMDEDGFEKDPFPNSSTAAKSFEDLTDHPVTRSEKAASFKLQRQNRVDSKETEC
Experimental: Using 96-well black microtiter plates, each well recieves a solution composed of 10 μL TACE (Immunex, final concentration 1 μg/mL), 70 μL Tris buffer, pH 7.4 containing 10% glycerol (final concentration 10 mM), and 10 μL of test compound solution in DMSO (final concentration, DMSO concentration <1%) and incubated for 10 minutes at room temperature. The reaction is initiated by addition of a fluorescent peptidyl substrate (final concentration 100 μM) to each well and then shaking on a shaker for 5 sec. The reaction is read (excitation 340 nm, emission 420 nm) for 10 min. and the increase in fluorescence over time is plotted as a linear line. The slope of the line is calculated and represents the reaction rate. […] The mean (x±sem) of the control rate is calculated and compared for statistical significance (p<0.05) with drug-treated rates using Dunnett's multiple comparison test.

MMP 13 = MMP 13 (Homo sapiens, UniProt P45452); assay: MMP 13 inhibition (HTS); type: biochemical

TACE % inhibition at 1 mM (TACE) [%] | MMP 13 % inhibition at 0.2 μM (HTS) (MMP 13) [%] | Compound | also measured
45.9 | – | 3-Bromo-2-chloro-thiophene-2-sulfonic acid 4-(1-hydroxycarbamoyl-heptylsulfonyl)-hydroxyamide [Example 239] | MMP 13 % inhibition at 36 nM (HTS) (MMP 13): 54%
– | 38 | CCCCCCCCC(C(=O)NO)[S+]([O-])c1ccc([S+](C)[O-])cc1 (stereo not drawn) [Example 144, 2-(4-methanesulfinyl-benzenesulfinyl)decanoic acid hydroxamide] | –
– | 45 | CCCCCCCCC(C(=O)NO)S(=O)(=O)c1ccc(S(C)(=O)=O)cc1 (stereo not drawn) [Example 145, 2-(4-methanesulfonyl-benzenesulfonyl)decanoic acid hydroxamide] | –
– | 68 | CSc1ccc(SC(COCc2ccccc2)C(=O)NO)cc1 (stereo not drawn) [Example 146, 3-benzyloxy-N-hydroxy-2-(4-methanesulfanyl-benzenesulfanyl)-propionamide] | –
– | 19 | N=C(N)NCCCC(Sc1ccccc1Br)C(=O)NO (stereo not drawn) [Example 157, 2-(2-Bromosulfanyl)-5-guanidino-pentanoic acid hydroxyamide] | –
– | 33 | N=C(N)NCCCC(C(=O)NO)[S+]([O-])c1ccccc1Br (stereo not drawn) [Example 158, 2-(2-Bromosulfinyl)-5-guanidino-pentanoic acid hydroxyamide] | –
– | 49 | N=C(N)NCCCC(C(=O)NO)S(=O)(=O)c1ccccc1Br (stereo not drawn) [Example 159, 2-(2-Bromosulfonyl)-5-guanidino-pentanoic acid hydroxyamide] | –
– | 14 | CCCCCCC(Sc1cc(Cl)ccc1Cl)C(=O)NO (stereo not drawn) [Example 160, 2-(2,5-dichlorobenzenesulfanyl)-octanoic Acid Hydroxyamide] | –
– | 13 | CCCCCCC(Sc1cccc(OC)c1)C(=O)NO (stereo not drawn) [Example 162, 2-(3-Methoxybenzenesulfanyl)-octanoic acid hydroxyamide] | –
– | 71 | CCCCCCC(Sc1ccc(OC)c(OC)c1)C(=O)NO (stereo not drawn) [Example 165, 2-(3,4-Dimethoxybenzenesulfanyl)-octanoic acid hydroxyamide] | –
– | 21 | CCCCCCC(Sc1nc2ccccc2[nH]1)C(=O)NO (stereo not drawn) [Example 168, 2-(2-Benzimidazol-2-ylsulfanyl)-octanoic acid hydroxyamide] | –
29.4 | – | CCCCCCC(Sc1nc(-c2ccccc2)cs1)C(=O)NO (stereo not drawn) [Example 172, 2-(4-Phenyl-thiazole-2-sulfanyl)-octanoic acid hydroxyamide] | MMP 13 % inhibition at 36 nM (HTS) (MMP 13): 34%
19.8 | – | CCCCCCC(Sc1ccc(NS(=O)(=O)c2cc(Cl)sc2Cl)cc1)C(=O)NO (stereo not drawn) [Example 233] | MMP 13 % inhibition at 36 nM (HTS) (MMP 13): 33%
18.4 | – | CCCCCCC(Sc1ccc(NS(=O)(=O)CC)cc1)C(=O)NO (stereo not drawn) [Example 234, Ethanesulfonic acid 4(1-hydroxycarbamoyl-heptylsulfanyl)-hydroxyamide] | –
35 | – | CCCCCCC(C(=O)NO)[S+]([O-])c1ccc(NS(=O)(=O)c2cc(Cl)sc2Cl)cc1 (stereo not drawn) [Example 236, 2,5-Dichloro-thiophene-3-sulfonic acid 4-(1-hydroxycarbamoyl-heptylsulfinyl)-hydroxyamide] | –

Further lines, the compound ahead of its results:

Compound | TACE % inhibition at 1 mM (TACE) [%] | MMP 13 % inhibition at 0.2 μM (HTS) (MMP 13) [%] | also measured
3-(1-Hydroxycarbamoyl-heptylsulfanyl)-benzoic acid hydroxyamide [Example 184] | 24.8 | – | MMP 13 % inhibition at 36 nM (HTS) (MMP 13): 16%
CCCCCCC(Sc1nccn1C)C(=O)NO (stereo not drawn) [Example 39, 2-(1-methyl-1H-imidazol-2-ylsulfanyl)-octanoic acid hydroxyamide] | – | – | melting point: 125 °C; IC50 (TACE; read-out: TACE IC 50): 69.4 nM
CC(C)=CCC(CC=C(C)C)(C(=O)NO)S(=O)(=O)c1ccc(C)cc1 [Example 42, 5-Methyl-2-(3-methyl-but-2-enyl)-2-(toluene-4-sulfonyl)-hex-4-enoic acid hydroxyamide] | – | – | melting point: 108 to 110 °C; IC50 (TACE; read-out: TACE IC 50): 36.5 nM
COc1ccc(S(=O)(=O)C2(C(=O)NO)CCN(Cc3ccc(Br)cc3)CC2)cc1 [Example 90, 1-(4Bromo-benzyl)-4-(4-methoxy-benzenesulfonyl)-piperidine-4-carboxylic acid hydroxyamide] | – | – | melting point: 180 °C; IC50 (TACE; read-out: TACE IC 50): 71.9 nM
COc1ccc(S(=O)(=O)C2(C(=O)NO)CCN(C(C)(C)C)CC2)cc1 [Example 92, 1-Tert-butyl-4-(4-methoxy-benzenesulfonyl)-piperidine-4-carboxylic acid hydroxyamide] | – | – | melting point: 40 °C; IC50 (TACE; read-out: TACE IC 50): 9.7 nM
COc1ccc(S(=O)(=O)C2(C(=O)NO)CCN(C3CCCCCCC3)CC2)cc1 [Example 94, 1-Cyclooctyl-4-(4-methoxy-benzenesulfonyl)-piperidine-4-carboxylic acid hydroxyamide] | – | – | melting point: > 200 °C; IC50 (TACE; read-out: TACE IC 50): 22.9 nM
COc1ccc(S(=O)(=O)C2(C(=O)NO)CCN(C(C)C)CC2)cc1 [Example 96, 1-Isopropyl-4-(4-methoxy-benzenesulfonyl)-piperidine-4-carboxylic acid hydroxyamide] | – | – | melting point: 75 °C; IC50 (TACE; read-out: TACE IC 50): 18.1 nM
COc1ccc(SC(C)C(=O)NO)cc1 (stereo not drawn) [Example 111, N-Hydroxy-2-(4-methoxy-benzenesulfanyl)-propionamide] | 40.4 | 10 | –
CC(C)CCSC(C)C(=O)NO (stereo not drawn) [Example 112, N-Hydroxy-2-(3-methyl-butane-1-sulfanyl)-propionamide] | 33.7 | 50 | –
CCC(SCC(=O)OC)C(=O)NO (stereo not drawn) [Example 119, (1-Hydroxycarbamoyl-propane-1-sulfanyl)-acetic acid methyl ester] | 7.8 | 0 | –
COC(=O)CCC(Sc1ccc(SC)cc1)C(=O)NO (stereo not drawn) [Example 131, 4-Hydroxycarbamoyl-4-(4-methanesulfanyl-phenylsulfanyl)-butyric acid methyl ester] | – | 71 | –
O=C(CCC(Sc1ccc(Br)cc1)C(=O)NO)NO (stereo not drawn) [Example 134, 4-Hydroxycarbamoyl-4-(4-bromo-benzenesulfanyl)-butyric acid hydroxyamide] | −9.31 | 25 | –
O=C(CCC(Sc1ccccc1C(F)(F)F)C(=O)NO)NO (stereo not drawn) [Example 137, 4-Hydroxycarbamoyl-4-(2-trifluoromethyl-benzenesulfanyl)-butyric acid hydroxyamide] | 13.35 | 83 | –
CCCCCCCCC(Sc1cccc(OC)c1)C(=O)NO (stereo not drawn) [Example 140, 2-(3-methoxy-benzenesulfanyl)decanoic acid hydroxamide] | – | 29 | –
CCCCCCCCC(C(=O)NO)[S+]([O-])c1cccc(OC)c1 (stereo not drawn) [Example 141, 2-(3-Methoxy-benzenesulfinyl)decanoic acid hydroxamide] | – | 32 | –
CCCCCCCCC(C(=O)NO)S(=O)(=O)c1cccc(OC)c1 (stereo not drawn) [Example 142, 2-(3-Methoxy-benzenesulfonyl)decanoic acid hydroxamide] | – | 69 | –
O=C(NO)C(Cc1cnc[nH]1)Sc1ccccc1Br (stereo not drawn) [Example 152, 2-(2-bromo-benzenesulfanyl)-N-hydroxy-3-(3H-imidazol-4-yl)-propionamide] | – | 9 | –
CCCCCCC(Sc1nc2ccccc2o1)C(=O)NO (stereo not drawn) [Example 169, 2-(2-Benzooxazol-2-ylsulfanyl)-octanoic acid hydroxyamide] | – | – | MMP 13 % inhibition at 36 nM (HTS) (MMP 13): 28%
CCCCCCC(Sc1nc2ccccc2s1)C(=O)NO (stereo not drawn) [Example 170, 2-(2-Benzothiazol-2-ylsulfanyl)-octanoic acid hydroxyamide] | – | – | MMP 13 % inhibition at 36 nM (HTS) (MMP 13): 32%
CCCCCCC(C(=O)NO)[S+]([O-])c1nc2ccccc2[nH]1 (stereo not drawn) [Example 177, 2-(2-Benzimidazol-2-ylsulfinyl)-octanoic acid hydroxyamide] | – | – | MMP 13 % inhibition at 36 nM (HTS) (MMP 13): 5%
CCCCCCC(C(=O)NO)S(=O)(=O)c1[nH]c2ccccc2[n+]1[O-] (stereo not drawn) [Example 181, 2-(3-Oxy-1H-benzimidazole-2-sulfonyl)-octanoic acid hydroxyamide] | – | – | MMP 13 % inhibition at 36 nM (HTS) (MMP 13): 6%
CCCCCCC(C(=O)NO)S(=O)(=O)CCc1cccc[n+]1[O-] (stereo not drawn) [Example 183, 2-[2-(1-Oxy-pyridin-2-yl)-ethanesulfonyl]-octanoic acid hydroxyamide] | – | – | MMP 13 % inhibition at 36 nM (HTS) (MMP 13): −6%
CCCCCCC(Sc1ccc(OCc2ccccc2)cc1)C(=O)NO (stereo not drawn) [Example 199, 2-(^4-Benzyloxy-phenylsulfanyl)-octanoic acid hydroxyamide] | – | – | MMP 13 % inhibition at 36 nM (HTS) (MMP 13): −10%
CCCCCCC(C(=O)NO)S(=O)(=O)c1ccc(OS(=O)(=O)c2ccccc2[N+](=O)[O-])cc1 (stereo not drawn) [Example 238, 2-Nitro-benzenesulfonic acid 4-(1-hydroxycarbamoyl-heptylsulfonyl)-hydroxyamide] | – | – | IC50 (TACE; solid phase compounds table): 930 nM
(1-Hydroxycarbamoyl-propane-1-sulfanyl)-propionic acid hydroxyamide [Example 122] | 3.1 | – | –
(1-Hydroxycarbamoyl-propane-1-sulfinyl)-acetic acid hydroxy amide [Example 121] | 6.1 | – | –
(1-Hydroxycarbamoyl-propane-1-sulfonyl)-acetic acid hydroxyamide [Example 120] | 19.9 | – | –
